Assay results published in PMC6978637 (Saudi Pharmaceutical Journal : SPJ, 2019).

Legend:
FGFR1 [1] = target: FGFR1 (Homo sapiens, UniProt P11362); experiment: Z'-LYTE kinase enzyme inhibition assay, FGFR1; format: biochemical; settings: FGFR1-IC50
FGFR1 [2] = experiment: Z'-LYTE kinase enzyme inhibition assay, FGFR1; format: biochemical; settings: for FGFR1-SI: selectivity index IC50/IC50, lowest IC50 of the compound = 1
FGFR2 [3] = target: FGFR2 (Homo sapiens, UniProt P21802); experiment: biochemical; settings: FGFR2-IC50
FGFR2 [4] = experiment: biochemical
FGFR3 [5] = target: FGFR3 (Homo sapiens, UniProt P22607); experiment: biochemical; format: biochemical; settings: FGFR3-IC50
FGFR3 [6] = experiment: biochemical; format: biochemical
FGFR4 = FGFR4 (Homo sapiens, UniProt P22455); experiment: biochemical; format: biochemical
WST-1 cytotoxicity assay = format: cell-based, mouse; settings: mouse, NIH-3T3 cells (mouse embryonic fibroblasts)
NIH-3T3 cells = experiment: WST-1 cytotoxicity assay; format: cell-based, mouse; settings: Mus musculus, NIH3T3, 48 h, read-out: NIH-3T3 Cells IC50

Sequence of FGFR4 (P22455 22-802): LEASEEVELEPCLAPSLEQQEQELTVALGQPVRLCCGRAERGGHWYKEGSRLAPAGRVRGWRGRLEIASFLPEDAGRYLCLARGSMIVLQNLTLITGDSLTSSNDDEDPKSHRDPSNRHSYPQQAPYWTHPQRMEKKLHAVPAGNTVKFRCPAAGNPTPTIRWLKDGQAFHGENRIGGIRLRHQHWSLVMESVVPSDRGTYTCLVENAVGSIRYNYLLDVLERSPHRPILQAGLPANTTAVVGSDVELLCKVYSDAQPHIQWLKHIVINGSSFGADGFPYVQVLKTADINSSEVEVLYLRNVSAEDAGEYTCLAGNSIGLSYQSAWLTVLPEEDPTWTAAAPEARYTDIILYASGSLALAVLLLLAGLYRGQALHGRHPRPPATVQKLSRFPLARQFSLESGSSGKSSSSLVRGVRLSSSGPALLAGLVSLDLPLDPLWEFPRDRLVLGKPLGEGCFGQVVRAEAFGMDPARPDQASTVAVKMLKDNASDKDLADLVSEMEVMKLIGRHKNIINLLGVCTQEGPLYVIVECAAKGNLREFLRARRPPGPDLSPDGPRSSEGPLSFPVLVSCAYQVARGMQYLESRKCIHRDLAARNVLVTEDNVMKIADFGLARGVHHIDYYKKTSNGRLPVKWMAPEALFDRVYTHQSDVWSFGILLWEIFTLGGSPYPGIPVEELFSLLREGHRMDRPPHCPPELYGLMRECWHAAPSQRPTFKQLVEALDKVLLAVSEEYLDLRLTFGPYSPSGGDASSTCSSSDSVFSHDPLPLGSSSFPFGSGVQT
Sequence of FGFR1 (Homo sapiens, UniProt P11362) (P11362 22-822): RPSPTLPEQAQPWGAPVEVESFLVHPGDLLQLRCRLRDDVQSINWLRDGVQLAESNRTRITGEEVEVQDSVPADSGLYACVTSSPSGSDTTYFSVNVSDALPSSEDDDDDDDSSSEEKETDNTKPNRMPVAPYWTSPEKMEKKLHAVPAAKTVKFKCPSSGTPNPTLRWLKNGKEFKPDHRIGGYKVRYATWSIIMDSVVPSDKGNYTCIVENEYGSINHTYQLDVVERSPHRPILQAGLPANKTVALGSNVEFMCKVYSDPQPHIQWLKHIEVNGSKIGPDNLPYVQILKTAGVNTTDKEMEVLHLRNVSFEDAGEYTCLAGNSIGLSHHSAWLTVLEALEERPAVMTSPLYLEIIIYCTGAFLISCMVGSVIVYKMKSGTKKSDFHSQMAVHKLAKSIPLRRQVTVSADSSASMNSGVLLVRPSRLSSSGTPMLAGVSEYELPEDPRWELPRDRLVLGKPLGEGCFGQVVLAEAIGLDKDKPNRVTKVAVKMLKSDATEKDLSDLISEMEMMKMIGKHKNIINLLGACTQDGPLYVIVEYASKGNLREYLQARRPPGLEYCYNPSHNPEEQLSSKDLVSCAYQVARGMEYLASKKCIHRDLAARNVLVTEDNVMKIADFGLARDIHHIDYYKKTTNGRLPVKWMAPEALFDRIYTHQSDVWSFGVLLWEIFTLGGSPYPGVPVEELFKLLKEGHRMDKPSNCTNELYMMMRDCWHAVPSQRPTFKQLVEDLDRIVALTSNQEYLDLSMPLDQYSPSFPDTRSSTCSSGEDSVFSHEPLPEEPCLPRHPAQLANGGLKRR
Sequence of FGFR3 (Homo sapiens, UniProt P22607) (P22607 23-806): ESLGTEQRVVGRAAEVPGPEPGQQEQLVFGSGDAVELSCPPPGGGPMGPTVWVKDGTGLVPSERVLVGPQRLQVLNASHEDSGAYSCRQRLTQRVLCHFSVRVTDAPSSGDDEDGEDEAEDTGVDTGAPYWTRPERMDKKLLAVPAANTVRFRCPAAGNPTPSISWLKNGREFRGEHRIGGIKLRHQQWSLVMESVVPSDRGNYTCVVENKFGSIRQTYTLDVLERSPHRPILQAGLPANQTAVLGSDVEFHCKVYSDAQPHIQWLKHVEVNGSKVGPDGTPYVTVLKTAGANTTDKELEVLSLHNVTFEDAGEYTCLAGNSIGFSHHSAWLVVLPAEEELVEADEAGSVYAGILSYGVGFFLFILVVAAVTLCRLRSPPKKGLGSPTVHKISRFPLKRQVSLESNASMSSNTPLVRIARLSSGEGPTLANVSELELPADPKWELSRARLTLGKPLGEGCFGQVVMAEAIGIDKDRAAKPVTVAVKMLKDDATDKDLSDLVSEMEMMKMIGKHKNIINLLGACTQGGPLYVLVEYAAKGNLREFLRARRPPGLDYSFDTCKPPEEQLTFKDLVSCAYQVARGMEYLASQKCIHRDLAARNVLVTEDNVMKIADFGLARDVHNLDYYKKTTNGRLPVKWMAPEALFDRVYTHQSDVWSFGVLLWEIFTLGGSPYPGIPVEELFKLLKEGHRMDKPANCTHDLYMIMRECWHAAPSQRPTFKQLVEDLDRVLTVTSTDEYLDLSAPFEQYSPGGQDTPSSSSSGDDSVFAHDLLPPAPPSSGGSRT
Sequence of FGFR2 (Homo sapiens, UniProt P21802) (P21802 22-821): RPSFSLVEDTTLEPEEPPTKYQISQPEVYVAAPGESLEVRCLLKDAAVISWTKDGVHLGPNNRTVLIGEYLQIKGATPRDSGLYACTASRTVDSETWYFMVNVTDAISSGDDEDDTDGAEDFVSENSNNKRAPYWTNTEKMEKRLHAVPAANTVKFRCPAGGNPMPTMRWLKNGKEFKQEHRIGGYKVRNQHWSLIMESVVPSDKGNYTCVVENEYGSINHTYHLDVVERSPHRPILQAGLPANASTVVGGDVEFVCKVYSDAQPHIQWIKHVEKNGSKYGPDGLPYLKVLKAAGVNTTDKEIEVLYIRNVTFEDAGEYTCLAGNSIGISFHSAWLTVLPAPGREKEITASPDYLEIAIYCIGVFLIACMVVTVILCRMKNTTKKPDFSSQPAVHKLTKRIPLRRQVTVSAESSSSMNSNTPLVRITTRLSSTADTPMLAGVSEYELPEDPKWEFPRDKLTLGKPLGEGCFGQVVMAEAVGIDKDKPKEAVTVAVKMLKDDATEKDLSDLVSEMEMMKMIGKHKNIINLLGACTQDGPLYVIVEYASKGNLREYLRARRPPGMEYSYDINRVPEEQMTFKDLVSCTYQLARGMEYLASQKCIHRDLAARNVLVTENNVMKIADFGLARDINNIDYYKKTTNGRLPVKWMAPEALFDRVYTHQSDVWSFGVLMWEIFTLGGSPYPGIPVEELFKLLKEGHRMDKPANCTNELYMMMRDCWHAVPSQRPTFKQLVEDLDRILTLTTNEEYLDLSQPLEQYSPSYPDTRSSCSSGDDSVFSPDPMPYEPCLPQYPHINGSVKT

| IC50 (FGFR1 [1]) | FGFR selectivity (in words) (FGFR1 [2]; among FGFR1-4) | FGFR1-SI (FGFR1 [2]) | IC50 (FGFR2 [3]) | IC50 (FGFR3 [5]) | FGFR4-SI (FGFR4) | IC50 (FGFR4) | SMILES | FGFR2-SI (FGFR2 [4]) | FGFR3-SI (FGFR3 [6]) | IC50 at 48 h (WST-1 cytotoxicity assay) | IC50 (NIH-3T3 cells) |
| --- | --- | --- | --- | --- | --- | --- | --- | --- | --- | --- | --- |
| 7 ± 0.206 nM | selectivity to FGFR1 | 1 | 1020 ± 67.3 nM | 17100 ± 294 nM | 1285.449 | 8990 ± 314 nM | CN1CCN(c2ccc(/C=C3/C(=O)Nc4ccc(-c5ccc6cc(O)ccc6c5)cc43)cc2)CC1 [Compound A13, (E)-5-(6-hydroxynaphthalen-2-yl)-3-[4-(4-methylpiperazin-1-yl)benzylidene]indolin-2-one] | 146.083 | 2442.824 | > 1000 nM | 30100 ± 3230 nM |
| 12 ± 0.736 nM | – | 1 | – | 131 ± 4.23 nM | – | 9240 ± 265 nM | O=CN1CCN(c2ccc(/C=C3/C(=O)Nc4ccc(-c5ccc(C(=O)N6CCOCC6)cc5)cc43)cc2)CC1 [Compound A27, (E)-4-{4-{ {5-[4-(morpholine-4-carbonyl)phenyl]-2-oxoindolin-3-ylidene}methyl}phenyl}piperazine-1-carbaldehyde] | – | 10.962 | > 1000 nM | 1230 ± 467 nM |
